Source: article PMC9377102, “Toxicity and toxicokinetics of the ethanol extract of Zuojin formula” (BMC Complementary Medicine and Therapies, 2022)
Read-outs that look alike come from different tables or passages of the source.

Columns and labels:
[1] = Toxicokinetics test in the satellite groups (UPLC-MS/MS of rat plasma); assay type: in vivo; conditions: for AUC(0-t) / Cmax: SD; for AUC(0-t): read-out: AUC0-t
Procedure: SD rats (5 ~ 6 weeks, 3/group/sex) were randomly allocated to three treatment groups and given the same dosage as those in the repeated toxicity experiment for 28 days. […] Carbamazepine was chosen as the internal standard (IS). The blood samples were centrifuged to obtain plasma. Then, 300 μL of acetonitrile containing 40 ng of IS was added to 100 μL of plasma. After vortexing for 1 min, the mixture was centrifuged at 17,000 rpm for 15 min at 4 °C. The supernatant of each sample was injected into a UPLC–MS/MS system for determination. The injection volume was 1 μL. UPLC–MS analysis was performed on a Thermo Fisher Scientific Ultimate 3000 UPLC system (San Jose, USA) and an API 4000 QTRAP mass spectrometer (Foster City, USA) equipped with an ESI source. The mobile phase consisted of 2 solvents: (A) water containing 0.1% formic acid and (B) 100% acetonitrile. For MS, multiple reaction monitoring (MRM) in positive ion mode was used as the scanning mode for the main components and IS in the plasma samples. The dwell time (DT), collision energy (CE), quadrupole 1 pre-rod bias (Q1) and quadrupole 3 pre-rod bias (Q3) are listed in Table 3.

[2] = cited from earlier work
[3] = test system: diarrhoea-predominant irritable bowel syndrome; conditions: rats, 50 and 100 mg/kg for 14 days; cited from earlier work
[4] = test system: thyroid hormone-induced diarrhoea; conditions: rats, 60 mg/kg oral gavage for 7 days; cited from earlier work
[5] = test system: CD4+ Th, CD4+CXCR5+ Tfh cells and Foxp3+ Tregs; conditions: mice, intraperitoneal injection 1 mg/kg; cited from earlier work
spleen = conditions: mice, intraperitoneal injection 10 mg/kg; cited from earlier work
[6] = test system: CYP3A4, CYP1A2 and CYP2D6; conditions: cited from earlier work
[7] = test system: CYP3A4, CYP1A2 and CYP2D6; conditions: cited from earlier work; remark: listed apart in the source
[8] = female SD rats, pure berberine 90 mg/kg orally, previous study, reference not given
[9] = male rats, pure berberine 90 mg/kg

COc1ccc2cc3[n+](cc2c1OC)CCc1cc2c(cc1-3)OCO2 [berberine]
AUC(0-t) ([1]; female, rat, plasma, po, 0.4 g/kg, female rats, Day 1, low dose TAZF 0.4 g/kg by gavage): 122 ± 17.1 ng·h/mL
Cmax ([1]; female, rat, plasma, po, 0.4 g/kg, female rats, Day 1, low dose TAZF 0.4 g/kg by gavage, read-out: Cmax): 149 ± 73 ng/mL
AUC(0-t) ([1]; female, rat, plasma, po, 0.4 g/kg, female rats, Day 28, low dose TAZF 0.4 g/kg by gavage): 838 ± 949 ng·h/mL
Cmax ([1]; female, rat, plasma, po, 0.4 g/kg, female rats, Day 28, low dose TAZF 0.4 g/kg by gavage, read-out: Cmax): 324 ± 432 ng/mL
AUC(0-t) ([1]; female, rat, plasma, po, 3.7 g/kg, female rats, Day 1, high dose TAZF 3.7 g/kg by gavage): 306 ± 94.7 ng·h/mL
Cmax ([1]; female, rat, plasma, po, 3.7 g/kg, female rats, Day 1, high dose TAZF 3.7 g/kg by gavage, read-out: Cmax): 219 ± 118 ng/mL
AUC(0-t) ([1]; female, rat, plasma, po, 3.7 g/kg, female rats, Day 28, high dose TAZF 3.7 g/kg by gavage): 153 ± 53.7 ng·h/mL
Cmax ([1]; female, rat, plasma, po, 3.7 g/kg, female rats, Day 28, high dose TAZF 3.7 g/kg by gavage, read-out: Cmax): 23.8 ± 6.25 ng/mL
AUC(0-t) ([1]; male, rat, plasma, po, 0.4 g/kg, male rats, Day 1, low dose TAZF 0.4 g/kg by gavage): 1220 ± 389 ng·h/mL
Cmax ([1]; male, rat, plasma, po, 0.4 g/kg, male rats, Day 1, low dose TAZF 0.4 g/kg by gavage, read-out: Cmax): 222 ± 180 ng/mL
AUC(0-t) ([1]; male, rat, plasma, po, 0.4 g/kg, male rats, Day 28, low dose TAZF 0.4 g/kg by gavage): 699 ± 644 ng·h/mL
Cmax ([1]; male, rat, plasma, po, 0.4 g/kg, male rats, Day 28, low dose TAZF 0.4 g/kg by gavage, read-out: Cmax): 460 ± 276 ng/mL
AUC(0-t) ([1]; male, rat, plasma, po, 3.7 g/kg, male rats, Day 1, high dose TAZF 3.7 g/kg by gavage): 1860 ± 425 ng·h/mL
Cmax ([1]; male, rat, plasma, po, 3.7 g/kg, male rats, Day 1, high dose TAZF 3.7 g/kg by gavage, read-out: Cmax): 219 ± 24.4 ng/mL
AUC(0-t) ([1]; male, rat, plasma, po, 3.7 g/kg, male rats, Day 28, high dose TAZF 3.7 g/kg by gavage): 608 ± 203 ng·h/mL
Cmax ([1]; male, rat, plasma, po, 3.7 g/kg, male rats, Day 28, high dose TAZF 3.7 g/kg by gavage, read-out: Cmax): 136 ± 77.9 ng/mL
Systemic exposure after 28 days of administration vs single administration ([1]; rats, oral TAZF): much lower
AUC0–36 [2, 8]: 88.8 ng·h/mL
Cmax [2, 8]: 29.2 ng/mL
AUC0–60 [2, 9]: 305.8 ng·h/mL
Cmax [2, 9]: 28.2 ng/mL
Effect on diarrhoea-predominant irritable bowel syndrome [3]: improve diarrhoea-predominant irritable bowel syndrome
Effect on thyroid hormone-induced diarrhoea [4]: effect was also observed
T cell subset levels [5]: reduced levels of CD^4+ Th and CD^4+CXCR^5+ Tfh cells and an increased level of Foxp^3+ Tregs
Immunosuppressive effect and spleen weight (spleen): strong immunosuppressive effect and reduced spleen weight
Metabolism by CYP3A4, CYP1A2 and CYP2D6 [6]: metabolized
Inhibition of CYP3A4, CYP1A2 and CYP2D6 [7]: inhibited

c1c2c(cc3c1OCO3)-c1cc3ccc4c(c3c[n+]1CC2)OCO4 [coptisine]
Cmax ([1]; male, rat, in vivo, po, 0.4 g/kg): 45.49 ± 57.63 ng/mL
Cmax ([1]; male, rat, in vivo, po, 0.4 g/kg, Cmax): 32.4 ± 33 ng/mL
Cmax ([1]; male, rat, in vivo, po, 3.7 g/kg): 20.05 ± 13.57 ng/mL
Cmax ([1]; male, rat, in vivo, po, 3.7 g/kg, Cmax): 32.3 ± 9.08 ng/mL
Systemic exposure after 28 days of administration vs single administration ([1]; rat, in vivo, po): much lower
